This is an account of results in patent publication US20220235029A1, “CRYSTAL FORM OF C-MET/AXL INHIBITOR” (MEDSHINE DISCOVERY INC., priority 2019, published 2022).

Data set [1] can be described thus: Study on the hygroscopicity (DVS detection). As to conditions: 25° C./80% RH. In kind it is physicochemical. The protocol:
Dynamic Vapor Sorption (DVS) Instrument in the Present Disclosure
Instrument model: DVS Advantage-1 (SMS)
Detection condition: about 10-15 mg of the sample was used for DVS detection.
Equilibrium: dm/dt=0.01%/min: (time: 10 min, longest: 180 min)
RH (%) gradient for testing: 10%
RH (%) gradient range for testing: 0%-90%-0%
The hygroscopicity was evaluated using the judgment criterias in the following Table 6: […]

The test system of data set [2] is MKN45 gastric cancer cell line. Briefly: Cell proliferation inhibition experiment (CellTiter-Glo). The format is cell-based. On the procedure: Reagents and Consumables:
The cell plates were incubated in a carbon dioxide incubator for 3 days.

The subject of data set [3] is human Hs746t gastric cancer cell xenograft tumor model. Briefly: In vivo pharmacodynamic study, Hs746t gastric cancer cell xenograft tumor model. On the set-up: species or system BALB/c nude mice. The conditions noted are these: for Tumor volume (mm^3) (20th day): average value ± SEM, Hs746t xenograft in BALB/c nude mice; for T/C (%) / TGI (%): calculated based on the tumor volume on the 21st day after administration. On the procedure:
Human gastric cancer HS 746T cells were cultured in a single layer in vitro. The culturing condition was DMEM medium supplemented with 10% fetal bovine serum, 100 U/mL penicillin and […] in 37° C., 5% CO2 incubator. Digestion and passage treatment with trypsin-EDTA was carried out twice a week. When the cell saturation was 80%-90% and the number reached the required level, the cells were collected, counted and seeded.
BALB/c nude mice, male. 6-8 weeks old, weighting 18-22 g.
0.2 mL (2×10^6, cells:Matrigel=1:1) HS 746T cells were inoculated subcutaneously on the right back of each mouse. The drug was administered in groups when the average tumor volume reached approximately 100-150 mm^3.
Experimental index: The experimental index was whether the tumor growth was inhibited, delayed or cured. The diameters of the tumor were measured twice a week using a vernier caliper. The formula for calculating the tumor volume is V=0.5a×b^2, a and b represent the long and short diameters of the tumor respectively. The antitumor effect (TGI) of the compound was evaluated by T-C (days) and T/C (%).

Regarding `CN(C)C(=O)Nc1cc(Oc2ccc(NC(=O)c3cn(CC4CC4)c(=O)n(-c4ccc(F)cc4)c3=O)cc2F)ccn1`, in data set [1], the Classification of hygroscopicity entry is “slightly hygroscopic” and the “Hygroscopic weight gain at 25/80% RH” value was 0.2801%. Besides, in data set [2], the “inhibitory activity on MKN45 cell (in words)” value is “good inhibitory activity”.

As for `CCOc1ccn(-c2ccc(F)cc2)c(=O)c1C(=O)Nc1ccc(Oc2ccnc(N)c2Cl)c(F)c1` [BMS777607], in data set [3], the “Tumor volume (mm^3) (20th day)” value turned out to be 1872 ± 355 mm^3, the “T/C (%)” value is given as 27.61% and the “TGI (%)” value is 73.58%.

For the compound `CN(C)C(=O)Nc1cc(Oc2ccc(NC(=O)c3cn(CC4CC4)c(=O)n(-c4ccc(F)cc4)c3=O)cc2F)ccn1.Cc1ccc(S(=O)(=O)O)cc1`, in data set [1], the Classification of hygroscopicity entry is reported as “slightly hygroscopic” and the “Hygroscopic weight gain at 25/80% RH” value stood at 0.999%.

As to `CN(C)C(=O)Nc1cc(Oc2ccc(NC(=O)c3cn(CC4CC4)c(=O)n(-c4ccc(F)cc4)c3=O)cc2F)ccn1` [Compound represented by formula (I)], the “tumor inhibitory effect (in words)” value in data set [3] (Hs746t gastric cancer cell xenograft tumor model) is “better tumor inhibitory effect than BMS777607 and LY2801653”. Also, in data set [3], the “Tumor volume (mm^3) (20th day)” value came out at 4 ± 2 mm^3, the “T/C (%)” value is on record as 104.82% and the “TGI (%)” value is 0.15%.

In the case of `Cc1ccc(C(=O)Nc2ccc(Oc3cc4cnn(C)c4cc3-c3cn[nH]c3)c(F)c2)c(=O)n1-c1ccc(F)cc1` [LY2801653], in data set [3], the “Tumor volume (mm^3) (20th day)” value was determined as 88 ± 13 mm^3, the “T/C (%)” value is listed as 101.62% and the “TGI (%)” value is given as 3.45%.
